# Results as given in PubChem BioAssay (NCI).
#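 Where inhibition never reached the appropriate level, the endpoint shown equals the highest concentration tested. Otherwise, values were interpolated linearly from a five-concentration, 48-hour dose response in 96-well plates. GI50: concentration for 50% inhibition of growth. TGI is the concentration that stops growth completely.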
# Legend:
# Assay in all cases: NCI-60 cell line screen, 48 h
# SF-295 CNS = tested on: SF-295 CNS
# NCI-H460 lung = tested on: NCI-H460 lung
# SK-MEL-2 melanoma = tested on: SK-MEL-2 melanoma
# SNB-75 CNS = tested on: SNB-75 CNS
# TK-10 renal = tested on: TK-10 renal
# NCI-H226 lung = tested on: NCI-H226 lung
# COLO 205 colon = tested on: COLO 205 colon
# LOX IMVI melanoma = tested on: LOX IMVI melanoma
# MOLT-4 leukemia = tested on: MOLT-4 leukemia
# PC-3 prostate = tested on: PC-3 prostate
# SF-539 CNS = tested on: SF-539 CNS
# RPMI-8226 leukemia = tested on: RPMI-8226 leukemia
# MALME-3M melanoma = tested on: MALME-3M melanoma
# HCC-2998 colon = tested on: HCC-2998 colon
# BT-549 breast = tested on: BT-549 breast
# NCI-H23 lung = tested on: NCI-H23 lung
# CCRF-CEM leukemia = tested on: CCRF-CEM leukemia
# NCI/ADR-RES ovarian = tested on: NCI/ADR-RES ovarian
# SF-268 CNS = tested on: SF-268 CNS
# T-47D breast = tested on: T-47D breast
# U251 CNS = tested on: U251 CNS
# HL-60(TB) leukemia = tested on: HL-60(TB) leukemia
# MCF7 breast = tested on: MCF7 breast
# HOP-62 NSCLC = tested on: HOP-62 NSCLC
# ACHN renal = tested on: ACHN renal
# OVCAR-8 ovarian = tested on: OVCAR-8 ovarian
# RXF 393 renal = tested on: RXF 393 renal
# HT29 colon = tested on: HT29 colon
# 786-0 renal = tested on: 786-0 renal
# OVCAR-3 ovarian = tested on: OVCAR-3 ovarian
# EKVX NSCLC = tested on: EKVX NSCLC
# HS 578T breast = tested on: HS 578T breast
# SK-MEL-5 melanoma = tested on: SK-MEL-5 melanoma
# SW-620 colon = tested on: SW-620 colon
# DU-145 prostate = tested on: DU-145 prostate
# SNB-19 CNS = tested on: SNB-19 CNS
# HCT-15 colon = tested on: HCT-15 colon
# UO-31 renal = tested on: UO-31 renal
# IGROV1 ovarian = tested on: IGROV1 ovarian
# CAKI-1 renal = tested on: CAKI-1 renal
# MDA-MB-231 breast = tested on: MDA-MB-231 breast
# NCI-H522 lung = tested on: NCI-H522 lung
# SN12C renal = tested on: SN12C renal
# SR leukemia = tested on: SR leukemia
# KM12 colon = tested on: KM12 colon
# OVCAR-4 ovarian = tested on: OVCAR-4 ovarian
# K-562 leukemia = tested on: K-562 leukemia
# UACC-257 melanoma = tested on: UACC-257 melanoma
# M14 melanoma = tested on: M14 melanoma
# SK-MEL-28 melanoma = tested on: SK-MEL-28 melanoma
# A549 NSCLC = tested on: A549 NSCLC
# SK-OV-3 ovarian = tested on: SK-OV-3 ovarian
# HCT-116 colon = tested on: HCT-116 colon
# OVCAR-5 ovarian = tested on: OVCAR-5 ovarian
# A498 renal = tested on: A498 renal
# UACC-62 melanoma = tested on: UACC-62 melanoma
# MDA-MB-435 = tested on: MDA-MB-435
smiles,measurement,setting,value
COc1cc(OC)cc(-c2ccc(-c3ccc(C(=N)N)o3)o2)c1,GI50,SF-295 CNS,2060 nM
same,TGI,SF-295 CNS,4.25 µM
same,GI50,NCI-H460 lung,2320 nM
same,TGI,NCI-H460 lung,5.17 µM
same,GI50,SK-MEL-2 melanoma,2440 nM
same,TGI,SK-MEL-2 melanoma,5.35 µM
same,GI50,SNB-75 CNS,2200 nM
same,TGI,SNB-75 CNS,13.8 µM
same,GI50,TK-10 renal,13.4 µM
same,TGI,TK-10 renal,26.5 µM
same,GI50,NCI-H226 lung,22.6 µM
same,TGI,NCI-H226 lung,44.6 µM
same,GI50,COLO 205 colon,1840 nM
same,TGI,COLO 205 colon,3.79 µM
same,GI50,LOX IMVI melanoma,1790 nM
same,TGI,LOX IMVI melanoma,3.29 µM
same,GI50,MOLT-4 leukemia,2440 nM
same,TGI,MOLT-4 leukemia,6.7 µM
same,GI50,PC-3 prostate,4.77 µM
same,TGI,PC-3 prostate,17.5 µM
same,GI50,SF-539 CNS,1830 nM
same,TGI,SF-539 CNS,3.44 µM
same,GI50,RPMI-8226 leukemia,2250 nM
same,TGI,RPMI-8226 leukemia,5.68 µM
same,GI50,MALME-3M melanoma,2040 nM
same,TGI,MALME-3M melanoma,4.21 µM
same,GI50,HCC-2998 colon,2050 nM
same,TGI,HCC-2998 colon,3.94 µM
same,GI50,BT-549 breast,6.91 µM
same,TGI,BT-549 breast,20.1 µM
same,GI50,NCI-H23 lung,9.25 µM
same,TGI,NCI-H23 lung,22.3 µM
same,GI50,CCRF-CEM leukemia,2720 nM
same,TGI,CCRF-CEM leukemia,7.72 µM
same,GI50,NCI/ADR-RES ovarian,8.26 µM
same,TGI,NCI/ADR-RES ovarian,22.4 µM
same,GI50,SF-268 CNS,3.4 µM
same,TGI,SF-268 CNS,13.2 µM
same,GI50,T-47D breast,2080 nM
same,TGI,T-47D breast,5.04 µM
same,GI50,U251 CNS,2450 nM
same,TGI,U251 CNS,5.91 µM
same,GI50,HL-60(TB) leukemia,1900 nM
same,TGI,HL-60(TB) leukemia,4.24 µM
same,GI50,MCF7 breast,1800 nM
same,TGI,MCF7 breast,4.31 µM
same,GI50,HOP-62 NSCLC,5.65 µM
same,TGI,HOP-62 NSCLC,19.1 µM
same,GI50,ACHN renal,2050 nM
same,TGI,ACHN renal,4.22 µM
same,GI50,OVCAR-8 ovarian,3.75 µM
same,TGI,OVCAR-8 ovarian,14 µM
same,GI50,RXF 393 renal,1930 nM
same,TGI,RXF 393 renal,5.24 µM
same,GI50,HT29 colon,2770 nM
same,TGI,HT29 colon,9.04 µM
same,GI50,786-0 renal,4.15 µM
same,TGI,786-0 renal,15.6 µM
same,GI50,OVCAR-3 ovarian,3.26 µM
same,TGI,OVCAR-3 ovarian,11.3 µM
same,GI50,EKVX NSCLC,5.09 µM
same,TGI,EKVX NSCLC,18.5 µM
same,GI50,HS 578T breast,8.12 µM
same,TGI,HS 578T breast,27.3 µM
same,GI50,SK-MEL-5 melanoma,1950 nM
same,TGI,SK-MEL-5 melanoma,3.39 µM
same,GI50,SW-620 colon,1880 nM
same,TGI,SW-620 colon,4.06 µM
same,GI50,DU-145 prostate,4.28 µM
same,TGI,DU-145 prostate,15.2 µM
same,GI50,SNB-19 CNS,3.02 µM
same,TGI,SNB-19 CNS,10.6 µM
same,GI50,HCT-15 colon,3.18 µM
same,TGI,HCT-15 colon,10.4 µM
same,GI50,UO-31 renal,2670 nM
same,TGI,UO-31 renal,9.16 µM
same,GI50,IGROV1 ovarian,2970 nM
same,TGI,IGROV1 ovarian,10.4 µM
same,GI50,CAKI-1 renal,4.33 µM
same,TGI,CAKI-1 renal,16.1 µM
same,GI50,MDA-MB-231 breast,2350 nM
same,TGI,MDA-MB-231 breast,4.78 µM
same,GI50,NCI-H522 lung,2300 nM
same,TGI,NCI-H522 lung,7.4 µM
same,GI50,SN12C renal,2380 nM
same,TGI,SN12C renal,5.15 µM
same,GI50,SR leukemia,1680 nM
same,TGI,SR leukemia,4.36 µM
same,GI50,KM12 colon,2450 nM
same,TGI,KM12 colon,6.56 µM
same,GI50,OVCAR-4 ovarian,3.51 µM
same,TGI,OVCAR-4 ovarian,14.8 µM
same,GI50,K-562 leukemia,1980 nM
same,TGI,K-562 leukemia,4.47 µM
same,GI50,UACC-257 melanoma,2410 nM
same,TGI,UACC-257 melanoma,5.41 µM
same,GI50,M14 melanoma,2070 nM
same,TGI,M14 melanoma,4.36 µM
same,GI50,SK-MEL-28 melanoma,1820 nM
same,TGI,SK-MEL-28 melanoma,3.67 µM
same,GI50,A549 NSCLC,3.78 µM
same,TGI,A549 NSCLC,13.3 µM
same,GI50,SK-OV-3 ovarian,14.9 µM
same,TGI,SK-OV-3 ovarian,28.5 µM
same,GI50,HCT-116 colon,2510 nM
same,TGI,HCT-116 colon,6.11 µM
same,GI50,OVCAR-5 ovarian,2340 nM
same,TGI,OVCAR-5 ovarian,5.25 µM
same,GI50,A498 renal,2890 nM
same,TGI,A498 renal,15.3 µM
same,GI50,UACC-62 melanoma,1960 nM
same,TGI,UACC-62 melanoma,3.98 µM
same,GI50,MDA-MB-435,1520 nM
same,TGI,MDA-MB-435,3.12 µM
